The values that follow come from US12162888B2, “Carboxamides as ubiquitin-specific protease inhibitors” (Valo Early Discovery, Inc., priority 2018, dated 2024).

The target in the first experiment is T1, USP28 (His-tagged USP28-FL-mammalian) (Homo sapiens, UniProt Q96RU2).
T1 construct: Expression of USP28 (1-1077)-TEV-6*His (pTT5 vector) was carried out in Expi293f cells; made in house; host or cells: Expi293F cells (pTT5 vector)
T1 sequence (Q96RU2 1-1077): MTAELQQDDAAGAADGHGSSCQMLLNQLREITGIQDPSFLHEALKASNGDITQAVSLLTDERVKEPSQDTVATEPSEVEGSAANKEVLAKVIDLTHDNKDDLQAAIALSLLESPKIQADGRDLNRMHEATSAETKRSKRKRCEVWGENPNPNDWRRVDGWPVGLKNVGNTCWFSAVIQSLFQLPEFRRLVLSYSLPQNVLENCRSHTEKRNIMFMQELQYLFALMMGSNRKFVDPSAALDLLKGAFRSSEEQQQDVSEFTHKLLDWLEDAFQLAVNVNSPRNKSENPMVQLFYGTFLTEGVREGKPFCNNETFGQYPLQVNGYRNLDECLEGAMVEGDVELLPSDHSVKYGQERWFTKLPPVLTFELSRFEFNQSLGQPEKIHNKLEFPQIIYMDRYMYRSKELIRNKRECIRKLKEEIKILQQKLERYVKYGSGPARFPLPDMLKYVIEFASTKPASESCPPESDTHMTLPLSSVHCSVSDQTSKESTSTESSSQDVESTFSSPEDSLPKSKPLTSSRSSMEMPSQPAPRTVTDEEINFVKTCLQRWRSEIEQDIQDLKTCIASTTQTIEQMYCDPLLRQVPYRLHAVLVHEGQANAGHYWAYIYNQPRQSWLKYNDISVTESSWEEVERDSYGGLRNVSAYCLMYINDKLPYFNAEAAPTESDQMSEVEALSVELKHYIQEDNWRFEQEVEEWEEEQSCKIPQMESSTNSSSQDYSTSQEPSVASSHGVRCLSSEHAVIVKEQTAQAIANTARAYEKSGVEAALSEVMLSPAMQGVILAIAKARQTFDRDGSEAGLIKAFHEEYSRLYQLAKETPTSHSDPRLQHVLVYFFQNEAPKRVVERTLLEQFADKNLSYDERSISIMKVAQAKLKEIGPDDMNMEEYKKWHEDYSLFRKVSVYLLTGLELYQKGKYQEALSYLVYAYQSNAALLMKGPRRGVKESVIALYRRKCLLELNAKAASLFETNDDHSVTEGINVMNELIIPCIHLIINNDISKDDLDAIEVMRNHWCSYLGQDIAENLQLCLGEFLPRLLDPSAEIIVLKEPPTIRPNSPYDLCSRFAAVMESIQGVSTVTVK
As to the kind of experiment: Ubiquitin-Rhodamine 110 Assay for USP28 Activity, Example A-1(a). Type of experiment: biochemical. The following applies: Ubiquitin-Rhodamine 110 assay, read-out: USP28 A-1(a) IC50 range. Summed up: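 IC50s were fitted with a 4-parameter logistic to percent inhibition relative to no-enzyme and DMSO controls, using Rhodamine 110 fluorescence (485/535 nm) released from 25 nM Ub-Rh110. The enzyme was Expi293F-expressed USP28-FL-His at […], preincubated 30 min with compound (10-point, 25 μM top) in Tris pH 8.0 buffer containing BGG and Triton X-100. Substrate turnover ran 45 min at room temperature and was stopped with 10 mM citric acid.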
With `CO[C@@H]1CN(c2ccc3c(c2F)OC[C@H](NC(=O)c2sc4nc(C)ccc4c2N)C3)C[C@H]1N` [Example 91, 3-amino-N-[(3R)-7-[(3R,4R)-3-amino-4-methoxypyrrolidin-1-yl]-8-fluoro-3,4-dihydro-2H-1-benzopyran-3-yl]-6-methylthieno[2,3-b]pyridine-2-carboxamide], the IC50 was 200 to 2000 nM.

The experiment is the same for the next values; noted with them: Ubiquitin-Rhodamine 110 biochemical assay, read-out: USP28 A-1(a) IC50 range.
Regarding `Cc1ccc2c(N)c(C(=O)N[C@H]3CCc4nc(N5C[C@H](N)[C@@]6(C5)OCC[C@@H]6C)ccc4C3)sc2n1` [Example 509, 3-amino-N-[(6S)-2-[(4S,5R,9S)-9-amino-4-methyl-1-oxa-7-azaspiro[4.4]nonan-7-yl]-5,6,7,8-tetrahydroquinolin-6-yl]-6-methylthieno[2,3-b]pyridine-2-carboxamide], the IC50 was in the range of 50 to 200 nM. For `Cc1ccc2c(N)c(C(=O)N[C@H]3CCc4nc(N5C[C@@H](N)[C@]6(C5)OCC[C@@H]6C)ccc4C3)sc2n1` [Example 511, 3-amino-N-[(6S)-2-[(4S,5S,9R)-9-amino-4-methyl-1-oxa-7-azaspiro[4.4]nonan-7-yl]-5,6,7,8-tetrahydroquinolin-6-yl]-6-methylthieno[2,3-b]pyridine-2-carboxamide], the IC50 lay within 200 to 2000 nM. Regarding `Cc1ccc2c(N)c(C(=O)N[C@H]3CCc4nc(N5C[C@@H](N)CC(F)(F)C5)ccc4C3)sc2n1` [Example 518, 3-amino-N-[(6S)-2-[(5S)-5-amino-3,3-difluoropiperidin-1-yl]-5,6,7,8-tetrahydroquinolin-6-yl]-6-methylthieno[2,3-b]pyridine-2-carboxamide], the IC50 was in the range of 1 to 50 nM. Still for that read-out and setting: for `Cc1ccc2c(N)c(C(=O)N[C@H]3CCc4nc(N5C[C@H](N)[C@@]6(CCCCO6)C5)ccc4C3)sc2n1` [Example 508, 3-amino-N-[(6S)-2-[(4S,5R)-4-amino-6-oxa-2-azaspiro[4.5]decan-2-yl]-5,6,7,8-tetrahydroquinolin-6-yl]-6-methylthieno[2,3-b]pyridine-2-carboxamide] the value was 50 to 200 nM; for `CN[C@H]1CN(c2ccc3c(n2)CC[C@H](NC(=O)c2sc4nc(C)ccc4c2N)C3)C[C@H]1COC` [Example 488, 3-amino-N-[(6S)-2-[(3R,4R)-3-(methoxymethyl)-4-(methylamino)pyrrolidin-1-yl]-5,6,7,8-tetrahydroquinolin-6-yl]-6-methylthieno[2,3-b]pyridine-2-carboxamide], 50 to 200 nM; for “3-amino-N-[(6S)-2-[(3S,4R)-3-(methoxymethyl)-4-[(^2H3)methylamino]pyrrolidin-1-yl]-5,6,7,8-tetrahydroquinolin-6-yl]-6-methylthieno[2,3-b]pyridine-2-carboxamide [Example 486]”, 50 to 200 nM. Still for that read-out and setting: for `Cc1cnc2c(N)c(C(=O)N[C@H]3CCc4nc(N5C[C@@H](N)C6(C5)OCCO6)ccc4C3)sc2n1` [Example 499, 7-amino-N-[(6S)-2-[(9R)-9-amino-1,4-dioxa-7-azaspiro[4.4]nonan-7-yl]-5,6,7,8-tetrahydroquinolin-6-yl]-3-methylthieno[2,3-b]pyrazine-6-carboxamide] the value was 200 to 2000 nM; for `Cc1ccc2c(N)c(C(=O)N[C@H]3CCc4nc(N5C[C@H](COC(F)(F)F)[C@H](N)C5)ccc4C3)sc2n1` [Example 485, 3-amino-N-[(6S)-2-[(3S,4S)-3-amino-4-[(trifluoromethoxy)methyl]pyrrolidin-1-yl]-5,6,7,8-tetrahydroquinolin-6-yl]-6-methylthieno[2,3-b]pyridine-2-carboxamide], 50 to 200 nM; for `Cc1ccc2c(N)c(C(=O)N[C@H]3CCc4nc(N5C[C@@H](N)[C@]6(C5)OCC[C@H]6C)ccc4C3)sc2n1` [Example 512, 3-amino-N-[(6S)-2-[(4R,5S,9R)-9-amino-4-methyl-1-oxa-7-azaspiro[4.4]nonan-7-yl]-5,6,7,8-tetrahydroquinolin-6-yl]-6-methylthieno[2,3-b]pyridine-2-carboxamide], 50 to 200 nM.

Still in this experiment, the particulars now being: biochemical IC50 range, Ubiquitin-Rhodamine 110 assay, read-out: USP28 A-1(a).
In the case of `Cc1ccc2c(N)c(C(=O)N[C@H]3COc4cc(N5C[C@@H](N)[C@]6(C5)OCC[C@H]6C)ccc4C3)sc2n1` (single isomer, unassigned) [Example 612-4], the IC50 lay within 1 to 50 nM. Still for that read-out and setting: as for `COC1CCCN(c2cc(F)c3c(c2)OCC(NC(=O)c2sc4nc(C)ccc4c2N)C3)CC1N` [Example 690, 3-amino-N-[(3R)-7-[(3S,4S)-3-amino-4-methoxyazcpan-1-yl]-5-fluoro-3,4-dihydro-2H-1-benzopyran-3-yl]-6-methylthieno[2,3-b]pyridine-2-carboxamide], the figure is 1 to 50 nM; as for `Cc1ccc2c(N)c(C(=O)N[C@H]3COc4nc(N5C[C@H](CF)[C@H](N)C5)ccc4C3)sc2n1` [Example 540, 3-amino-N-[(3R)-7-[(3S,4S)-3-amino-4-(fluoromethyl)pyrrolidin-1-yl]-2H,3H,4H-pyrano[2,3-b]pyridin-3-yl]-6-methylthieno[2,3-b]pyridine-2-carboxamide], 50 to 200 nM; as for `CO[C@@H]1CCCN(c2cc(F)c3c(c2)OC[C@H](NC(=O)c2sc4nc(C)ccc4c2N)C3)C[C@H]1N` [Example 689, 3-amino-N-[(3R)-7-[(3R,4R)-3-amino-4-methoxyazepan-1-yl]-5-fluoro-3,4-dihydro-2H-1-benzopyran-3-yl]-6-methylthieno[2,3-b]pyridine-2-carboxamide], 1 to 50 nM. Same read-out and setting: for `Cc1ccc2c(N)c(C(=O)N[C@H]3COc4cc(N5C[C@@H](N)[C@@]6(CCCCO6)C5)ccc4C3)sc2n1` [Example 653, 3-amino-N-[(3R)-7-[(4R,5R)-4-amino-6-oxa-2-azaspiro[4.5]decan-2-yl]-3,4-dihydro-2H-1-benzopyran-3-yl]-6-methylthieno[2,3-b]pyridine-2-carboxamide] the value was 1 to 50 nM; for `Cc1ccc2c(N)c(C(=O)N[C@H]3COc4cc(N5C[C@@H](N)C6(C5)OCCO6)ccc4C3)sc2n1` [Example 682, 3-amino-N-[(3R)-7-[(9R)-9-amino-1,4-dioxa-7-azaspiro[4.4]nonan-7-yl]-3,4-dihydro-2H-1-benzopyran-3-yl]-6-methylthieno[2,3-b]pyridine-2-carboxamide], 50 to 200 nM. Same read-out and setting: as for `CNc1ncc(C(=O)N[C@H]2COc3cc(N4CCNCC4)ccc3C2)c2[nH]cc(Cl)c12` [Example 675, 3-chloro-4-(methylamino)-N-[(3R)-7-(piperazin-1-yl)-3,4-dihydro-2H-1-benzopyran-3-yl]-1H-pyrrolo[3,2-c]pyridine-7-carboxamide], the figure is 200 to 2000 nM; as for `Cc1ccc2c(N)c(C(=O)NC3COc4cc(N5CC6NCC(F)(F)C6C5)ccc4C3)sc2n1` [Example 654, N-[(3R)-7-[(3aS,6aS)-3,3-difluorooctahydropyrrolo[3,4-b]pyrrol-5-yll-3,4-dihydro-2H-1-benzopyran-3-yl]-3-amino-6-methylthieno[2,3-b]pyridine-2-carboxamide], 1 to 50 nM.

With `Cc1ccc2c(N)c(C(=O)NC3COc4cc(N5CC(N)C(COC(F)(F)F)C5)ccc4C3)sc2n1` [Example 672, 3-amino-N-[(3R)-7-[(3R,4R)-3-amino-4-[(trifluoromethoxy)methyl]pyrrolidin-1-yl]-3,4-dihydro-2H-1-benzopyran-3-yl]-6-methylthicno[2,3-b]pyridine-2-carboxamide], the IC50 fell in the range of 50 to 200 nM.
